Source: ChEMBL document CHEMBL3430912, “GSK Tres Cantos Anti-Kinetoplastid Screening (TCAKS) Data”

Experiments:
[1] = system: Trypanosoma brucei brucei; assay: GSK_TCAKS: pIC50 Trypanosoma brucei viability assay using fluorescence intensity. Assay plates (1536-well) were prepared by dispensing 25nL of compound solution per well using an Echo acoustic dispenser (Labcyte).; format: functional, organism-based; conditions: Lister 427, 2 h
Leishmania donovani [2] = assay: (§1) GSK_TCAKS: pIC50 Leishmania donovani Imaging: THP-1 Host Macrophages. Assay plates (384-well) were prepared by adding 250nL of compound to each well. For single shot assay, the final compound concentration was 5 uM. […] Automated image analysis was performed with a script developed on Acapella High Content Imaging and Analysis Software (PerkinElmer). Output: THP-1 cell count were reported for each well.; format: functional, organism-based, Homo sapiens
Leishmania donovani [3] = assay: as §1, with “Amastigotes/Macrophages.” for “THP-1 Host Macrophages.”, “Average number of amastigotes per macrophage” for “THP-1”, “cell” for “cell count”; format: functional, organism-based, Homo sapiens; conditions: THP-1
NIH3T3 = assay: GSK_TCAKS: pIC50 NIH 3T3 cell line viability assay using luminiscence. Tissue culture surface treated assay plates (1536-well) were used. […] The 100% cells survival control was determined exposing the host-cells to a 0.5% DMSO concentration, whereas the 100% toxicity control was achieved by seeding the cells in presence of Amphotericin B at 50uM. Plates were incubated for four days at 37C, 5% CO2. The assay readout was developed by addition of 5uL of CellTiter-Glo Reagent following the manufacturer's instructions. Luminiscence was measured using a ViewLux.; format: functional, cell-based; conditions: Mus musculus, NIH3T3, 96 h
[4] = GSK_TCAKS: pIC50 HepG2 human cell line viability assay using luminiscence. […] Seeding density was checked to ensure that new mono-layers were not more than 50% confluent at the time of harvesting. Cell suspension was added to 500 mL of the same medium at a final density of 1.2 * 10^5 cells/mL. This cell suspension was dispensed (25 uL, 3000 cells per well) into 384-well clear-bottom plates using a Multidrop Combi dispenser. Prior to addition of the cell suspension, the screening compounds (250 nL) were pre-dispensed into the plates with an Echo liquid handler. Plates were incubated for 48 h at 37C, 5% CO2. After incubation, plates equilibrated at room temperature for 30 min before proceeding to develop the luminescent signal. The signal developer, CellTiter-Glo Reagent, was allowed to equilibrate at room temperature for 30 min and added to the plates (25uL per well) using a Multidrop Combi dispenser. Plates were left for 10 min at room temperature for stabilization and then read using a ViewLux.; format: toxicity, cell-based
Leishmania donovani [5] = assay: GSK_TCAKS: pIC50 Leishmania donovani viability assay using fluorescence intensity. Assay plates (1536-well) were prepared by adding 30nL per well of compound. For single shot assay, the final compound concentration was 5uM. […] Briefly, eGFP LdBOB axenic amastigotes were harvested, fixed and counted in a CASY cell counter (Roche-Applied Science). A final concentration of 1.5 * 10^5 cells per well were prepared in amastigote media containing 500 U/mL penicillin/streptomycin (Invitrogen) and 6uL was dispensed to each experimental well using a Multidrop Combi dispenser (Thermo Scientific). 6uL of assay media was dispensed to control columns used as reference for 100% compound response. Following incubation for 72 h at 37C, 5% CO2, 2 uL of resazurin was added to each well at a final concentration of 0.5 mM in phosphate buffered saline (PBS) with IGEPAL (Sigma-Aldrich), 0.05% (v/v).; format: functional, organism-based
[6] = biological target: Sterol 14-alpha demethylase (Trypanosoma cruzi (strain CL Brener), UniProt Q7Z1V1); assay: GSK_TCAKS: pIC50 CYP51 from Trypanosoma cruzi.; format: functional
Chain of Sterol 14-alpha demethylase (Q7Z1V1 whole entry): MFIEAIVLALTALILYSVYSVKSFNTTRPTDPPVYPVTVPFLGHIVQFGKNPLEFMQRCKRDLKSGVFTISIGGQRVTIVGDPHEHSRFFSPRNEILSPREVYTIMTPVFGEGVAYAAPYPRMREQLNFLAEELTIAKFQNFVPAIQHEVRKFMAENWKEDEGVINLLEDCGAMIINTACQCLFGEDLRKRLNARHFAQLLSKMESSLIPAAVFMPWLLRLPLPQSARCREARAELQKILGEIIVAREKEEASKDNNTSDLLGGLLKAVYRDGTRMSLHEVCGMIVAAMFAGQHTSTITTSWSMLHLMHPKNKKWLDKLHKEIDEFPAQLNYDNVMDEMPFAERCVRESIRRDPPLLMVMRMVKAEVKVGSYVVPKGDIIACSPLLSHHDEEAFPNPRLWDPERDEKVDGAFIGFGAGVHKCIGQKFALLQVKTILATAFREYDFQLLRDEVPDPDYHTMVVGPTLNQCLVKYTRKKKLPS

Trypanosoma cruzi [7] = assay: (§2) GSK_TCAKS: pIC50 Trypanosoma cruzi Imaging: Infected Cells. […] Cells were then washed once with PBS before infection. T. cruzi trypomastigotes, collected at days 5 to 8 after infection from LLC-MK2 parasite infected cultures, were allowed to swim out for 4h at 37C from a centrifuged pellet (2,500 rpm/10 min/room temperature). Trypomastigotes were then collected and counted in a CASY Cell Counter. Trypomastigotes, in supplemented DMEM, were added to H9c2 cultures in a multiplicity of infection of 1 and incubated for 18 h. Cells were washed once with PBS before incubation of the infected H9c2 monolayer with trypsin (Life-Technologies) to detach cells from the flask. Cells were counted in a CASY Cell Counter using a 150 um capillary and their density set at 5 * 10^4 cells per mL in supplemented assay DMEM. Infected H9c2 were dispensed into 384-well poly-lysine coated assay plates at 50uL per well using a Multidrop Combi dispenser. After seeding them, the plates were incubated at 37C, 5% CO2 for 72h. Cultures were then fixed and stained by addition of 50 uL of a solution containing 8% formaldehyde and 4 uM DRAQ5 DNA dye (BioStatus, UK) per well. […] Five images were collected per well for reliable statistical analysis. Automated image analysis was performed with a script developed on Acapella High Content Imaging and Analysis Software (PerkinElmer). Output: percentage of infected cells per well as a second infection marker.; format: functional, organism-based, Rattus norvegicus; conditions: H9c2, 4 h
Trypanosoma cruzi [8] = assay: GSK_TCAKS: pIC50 Trypanosoma cruzi Imaging: Amastigotes/Cell. […] Cells were then washed once with PBS before infection. T. cruzi trypomastigotes, collected at days 5 to 8 after infection from LLC-MK2 parasite infected cultures, were allowed to swim out for 4h at 37C from a centrifuged pellet (2,500 rpm/10 min/room temperature). Trypomastigotes were then collected and counted in a CASY Cell Counter. Trypomastigotes, in supplemented DMEM, were added to H9c2 cultures in a multiplicity of infection of 1 and incubated for 18 h. Cells were washed once with PBS before incubation of the infected H9c2 monolayer with trypsin (Life-Technologies) to detach cells from the flask. Cells were counted in a CASY Cell Counter using a 150 um capillary and their density set at 5 * 10^4 cells per mL in supplemented assay DMEM. Infected H9c2 were dispensed into 384-well poly-lysine coated assay plates at 50uL per well using a Multidrop Combi dispenser. After seeding them, the plates were incubated at 37C, 5% CO2 for 72h. Cultures were then fixed and stained by addition of 50 uL of a solution containing 8% formaldehyde and 4 uM DRAQ5 DNA dye (BioStatus, UK) per well. […] Five images were collected per well for reliable statistical analysis. Automated image analysis was performed with a script developed on Acapella High Content Imaging and Analysis Software (PerkinElmer). Output: number of amastigotes per cell as infection level measurement.; format: functional, organism-based, Rattus norvegicus; conditions: H9c2, 4 h
Trypanosoma cruzi [9] = assay: as §2, with “H2C9” for “Trypanosoma cruzi”, “H9c2 Host Cardiomyocytes.” for “Infected Cells.”, “Number” for “percentage”, “H9c2 Host Cardiomyocytes nuclei to determine drug-related cytotoxicity.” for “infected cells per well as a second infection marker.”; format: functional, organism-based, Rattus norvegicus; conditions: H9c2, 4 h
[10] = system: Trypanosoma brucei brucei; assay: GSK_TCAKS: pIC50 Trypanosoma brucei viability assay using luminiscence. Assay plates (1536-well) were prepared. T. brucei cultures were harvested and counted in a CASY cell counter. A parasite suspension was prepared at a final concentration of 5 * 10^4 cells/mL in complete HMI9 medium and 6uL was dispensed to all wells containing compounds using a Multidrop Combi dispenser. 6uL of HMI9 media with 0.4% DMSO were dispensed to control columns. Plates were incubated for 24 h at 37C, 5% CO2 then tempered for 10 min at room temperature. ATP content was quantified by adding 4 uL of CellTiter-Glo Reagent (Promega) according to the manufacturer's instructions. Luminescence was measured using a ViewLux.; format: functional, organism-based; conditions: Lister 427, CASY
Trypanosoma cruzi [11] = assay: GSK_TCAKS: pIC50 Trypanosoma cruzi viability assay using beta-GAL activity. This assay was run at single shot at 5uM compound concentration per well. The biological reagents consisted of NIH-3T3 host cells and trypomastigotes parasitic cells; both cell types were set to a 3.3 * 10^5 cells/mL dilution in assay DMEM by means of a CASY cell counter device using a 60um capillary. 6 uL of the mixture were dispensed per well (about 1 * 10^3 host-cells and 1 * 10^3 parasites) with a Multidrop Combi dispenser. […] In all wells, the percentage of DMSO never exceeded 0.5%. Plates incubated for four days at 37C, 5% CO2. The substrate used for the assay fluorescence intensity (FLINT) readout was resorufin-beta-D-galactopiranoside (Sigma-Aldrich) at 5uM per well. It was diluted in PBS supplemented with the soft detergent Igepal (Fluka).; format: functional, organism-based, Mus musculus; conditions: Tulahuen, NIH3T3
Leishmania donovani [12] = assay: as §1, with “Infected” for “THP-1 Host”, “Percent of infected macrophage cells” for “THP-1 cell count”; format: functional, organism-based, Homo sapiens; conditions: THP-1

| Compound | IC50 [1] [µM] | IC50 (Leishmania donovani [2]) [µM] | IC50 (Leishmania donovani [3]) [µM] | IC50 (NIH3T3) [µM] | IC50 at 48 h [4] [µM] | IC50 (Leishmania donovani [5]) [µM] | IC50 [6] [nM] | IC50 (Trypanosoma cruzi [7]) [nM] | IC50 (Trypanosoma cruzi [8]) [nM] | IC50 (Trypanosoma cruzi [9]) [µM] | IC50 [10] [µM] | IC50 (Trypanosoma cruzi [11]) [nM] | IC50 (Leishmania donovani [12]) [µM] |
| --- | --- | --- | --- | --- | --- | --- | --- | --- | --- | --- | --- | --- | --- |
| CN(Cc1cc2ccccc2s1)c1ncc2c(N)nc(N)nc2n1 | 31.6 | 25.1 | 25.1 | 25.1 | 39.8 | 31.6 | > 100000 | 3160 | 794 | 20 | 25.1 | 2000 | 31.6 |
| Clc1ccc(OCCN2CCCCC2c2cccnc2)c(Cl)c1 (stereo not given) | 31.6 | > 50.1 | 5.01 | 25.1 | 79.4 | 5.01 | 63.1 | 200 | 158 | > 50.1 | > 39.8 | 398 | > 50.1 |
| O=C(NCCNc1noc(-c2ccc([N+](=O)[O-])cc2)n1)c1ccc(Cl)cc1 | 3.16 | 15.8 | > 50.1 | > 50.1 | > 100 | > 50.1 | > 100000 | > 50100 | 1260 | > 50.1 | > 39.8 | 2000 | > 50.1 |
| CN(Cc1cccnc1)Cc1ccc(N2CCN(C(=O)C3(c4ccc(Cl)cc4)CC3)CC2)nc1 | 31.6 | 10 | > 50.1 | 7.94 | > 100 | 31.6 | 158 | 1580 | 1260 | > 50.1 | 25.1 | 501 | > 50.1 |
| COc1ccc(S(=O)(=O)NC(C)C)cc1Nc1ncc(-c2cccc(F)c2)cn1 | 20 | > 50.1 | > 50.1 | 5.01 | > 100 | 6.31 | > 100000 | 398 | 316 | > 50.1 | > 39.8 | 631 | > 50.1 |
| O=C(NCCc1ccccc1Cl)c1cccn1-c1cccnc1 | 31.6 | > 50.1 | > 50.1 | 31.6 | > 100 | 6.31 | 79.4 | 501 | 501 | > 50.1 | > 39.8 | 398 | > 50.1 |
| COc1ccc(S(=O)(=O)Nc2ccccc2OC)cc1NC(=O)CCCc1c[nH]c2ccccc12 | 12.6 | > 50.1 | > 50.1 | > 50.1 | > 100 | 25.1 | > 100000 | 1260 | 1000 | > 50.1 | 31.6 | 1580 | > 50.1 |
| Cc1nn(C2CCS(=O)(=O)C2)c(C)c1CN(C)C(=O)C=Cc1sc2ccccc2c1Cl (stereo not given) | 10 | 20 | 12.6 | > 50.1 | > 100 | 12.6 | 31.6 | 501 | 316 | > 50.1 | 25.1 | 631 | 39.8 |
| COc1ccc2c(Cl)c(C(=O)N3CCC3)sc2c1Cl | 20 | > 50.1 | > 50.1 | > 50.1 | > 100 | > 50.1 | > 100000 | 2510 | 794 | > 50.1 | > 39.8 | 447 | > 50.1 |
| Cc1cc(C)nc(N2CCC(N(Cc3cccnc3)C(=O)c3cccc(C#N)c3)CC2)n1 | > 39.8 | > 50.1 | > 50.1 | 7.94 | > 100 | 5.01 | 126 | 316 | 398 | > 50.1 | > 39.8 | 316 | > 50.1 |
| CCN(CC)S(=O)(=O)c1ccc(C(=O)Nc2cc(C)nn2-c2nc(C)c(C)c(=O)[nH]2)cc1 | 0.316 | 3.16 | > 50.1 | > 50.1 | > 100 | 0.501 | > 100000 | 1580 | 316 | > 50.1 | 0.316 | 631 | > 50.1 |
| COc1ccc(C(C)(C)C)cc1S(=O)(=O)n1ccnc1 | 39.8 | > 50.1 | 25.1 | > 50.1 | > 100 | 39.8 | 7.94 | 200 | 200 | > 50.1 | > 39.8 | 141 | > 50.1 |
| CCCn1c(NC(=O)Cc2ccc(Cl)cc2)nc2ccccc21 | 2 | > 50.1 | 3.16 | > 50.1 | > 100 | 39.8 | > 100000 | 2000 | 1260 | > 50.1 | 3.16 | 631 | 5.01 |
| O=C(Nc1nc(-c2ccc(S(=O)(=O)N3CCOCC3)cc2)cs1)c1ccc([N+](=O)[O-])cc1 | 3.98 | 3.98 | 2.51 | 25.1 | > 100 | > 50.1 | > 100000 | 1580 | 501 | > 50.1 | 10 | 1000 | > 50.1 |
| Cc1ccc2sc(NC(=O)Cn3cnc([N+](=O)[O-])n3)nc2c1 | 25.1 | > 50.1 | > 50.1 | 50.1 | > 100 | > 50.1 | > 100000 | 3980 | 501 | > 50.1 | > 39.8 | 1260 | > 50.1 |
